Among the test systems are RPMI-8226; BT-549; TK-10; Hs-578T; DU-145; MDA-MB-435; Malme-3M; NCI-H522; HCT-116; CAKI-1; SNB-19; OVCAR-3; NCI-H23; HOP-92; HT-29; SK-MEL-28; T47D; 786-0; COLO 205.
Experiment in all cases: NCI tumour cell line growth inhibition, 48 h

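A five-concentration, 48-hour dose response in 96-well plates underlies each endpoint, interpolated linearly between surrounding concentrations. Here, GI50 denotes the concentration required for 50% inhibition of growth.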 Calls of active or inactive are those of the source. Cut-off read from the data, not from the text of the source: active = GI50 up to about 1.1 µM and inactive = higher.

`COc1cc(/C=C/c2sc3ccccc3[n+]2C)ccc1N(C)C`: the GI50 with RPMI-8226 is 2.21 µM (inactive); in the test on BT-549, 0.368 µM (active); in the test with TK-10 it was 13.2 µM (inactive); with Hs-578T, 41.3 µM (inactive); with DU-145, 13.6 µM (inactive); with MDA-MB-435, 3.32 µM (inactive). In addition, the GI50 is 2.49 µM (inactive) in the test on Malme-3M; 3.01 µM (inactive) in the test with NCI-H522; 3.3 µM (inactive) with HCT-116; 35.6 µM (inactive) in the test on CAKI-1; 12.9 µM (inactive) in the test on SNB-19; 2.23 µM (inactive) in the test with OVCAR-3. Also, the GI50 in the test with NCI-H23 is 11.5 µM (inactive); with HOP-92, 1.85 µM (inactive); with HT-29, 17.9 µM (inactive); in the test with SK-MEL-28, 8.2 µM (inactive); in the test on T47D it was 3.21 µM (inactive); in the test with 786-0, 12.2 µM (inactive). Further, the GI50 in the test with COLO 205 was 1.29 µM (inactive).
Turning to `O=C1CCC(C(=O)O)C2=C1CCCC2` (configuration not stated), the GI50 in the test with RPMI-8226, in the test on BT-549, with TK-10, in the test on Hs-578T, in the test with DU-145 and in the test on MDA-MB-435 was > 100 µM (inactive) each time. Also, the GI50 in the test on Malme-3M was > 100 µM (inactive); in the test with NCI-H522, > 100 µM (inactive); in the test on HCT-116 it was > 100 µM (inactive); in the test with CAKI-1, > 100 µM (inactive); with SNB-19, > 36.2 µM (inactive); in the test on OVCAR-3, > 100 µM (inactive). The GI50 was > 15.5 µM (inactive) in the test with NCI-H23; > 100 µM (inactive) in the test with HOP-92; > 100 µM (inactive) in the test on HT-29; > 100 µM (inactive) in the test with SK-MEL-28; > 100 µM (inactive) with T47D; > 28.6 µM (inactive) with 786-0. In the test with COLO 205, the GI50 is > 100 µM (inactive).
In the case of `Cl/C(=C\C=N\c1ccc(I)cc1)c1ccc2ccccc2c1`, the GI50 was 17.3 µM (inactive) with RPMI-8226; 16.9 µM (inactive) in the test on BT-549; 16.4 µM (inactive) with TK-10; 28.4 µM (inactive) with Hs-578T; 21.4 µM (inactive) in the test on DU-145; 9.42 µM (inactive) in the test on MDA-MB-435. Besides, the GI50 in the test on Malme-3M was 20.6 µM (inactive); in the test with NCI-H522, 27.2 µM (inactive); in the test on HCT-116 it was 16.1 µM (inactive); in the test on CAKI-1, 11.9 µM (inactive); in the test with SNB-19 it was 18.3 µM (inactive); in the test on OVCAR-3 it was 15 µM (inactive). For the same molecule, the GI50 with NCI-H23 was 16 µM (inactive); in the test on HOP-92, 41.6 µM (inactive); in the test with HT-29, 40.5 µM (inactive); in the test with SK-MEL-28 it was 21.4 µM (inactive); in the test with T47D, 10.4 µM (inactive); in the test with 786-0 it was 17.6 µM (inactive). Moreover, the GI50 in the test with COLO 205 is 16.3 µM (inactive).
`CN(Cc1cc(C(C)(C)C)cc(Br)c1O)Cc1cc(C(C)(C)C)cc(Br)c1O`: the GI50 was 2.01 µM (inactive) in the test with RPMI-8226; 4 µM (inactive) in the test with BT-549; 2.17 µM (inactive) with TK-10; 2.65 µM (inactive) in the test on Hs-578T; 6.1 µM (inactive) in the test on DU-145; 4.43 µM (inactive) in the test on MDA-MB-435. Moreover, the GI50 in the test on Malme-3M is 4.58 µM (inactive); with NCI-H522, 2.84 µM (inactive); in the test on HCT-116 it was 3.05 µM (inactive); in the test on CAKI-1, 3.4 µM (inactive); in the test with SNB-19, 6.61 µM (inactive); in the test with OVCAR-3, 2.15 µM (inactive). The GI50 with NCI-H23 was 3.15 µM (inactive); with HOP-92, 4.23 µM (inactive); in the test with HT-29, 4.48 µM (inactive); with SK-MEL-28, 5.14 µM (inactive); in the test on T47D, 3.5 µM (inactive); in the test with 786-0, 3.69 µM (inactive). Besides, the GI50 in the test on COLO 205 is 12.2 µM (inactive).
Turning to `CC(C)c1cc2c(cc1S(=O)(=O)O)[C@@]1(C)CCC[C@@](C)(C(=O)O)C1CC2` (some centres not stated), the GI50 in the test on RPMI-8226, in the test on BT-549, in the test with TK-10, with Hs-578T, in the test with DU-145 and in the test on MDA-MB-435 was > 100 µM (inactive) each time. Also, the GI50 in the test on Malme-3M, in the test with NCI-H522, with HCT-116, with CAKI-1, in the test on SNB-19 and with OVCAR-3 was > 100 µM (inactive) in each case. The GI50 in the test on NCI-H23, in the test on HOP-92, with HT-29, with SK-MEL-28, in the test on T47D and in the test with 786-0 was > 100 µM (inactive) each time. For the same molecule, the GI50 in the test with COLO 205 is > 100 µM (inactive).
For the molecule `O=C1N/C(=N/N=C/C(O)C(O)C(O)C(O)CO)N/C1=C\c1ccco1` (configuration not stated), the GI50 with RPMI-8226, with BT-549, with TK-10, in the test on Hs-578T, in the test with DU-145 and in the test with MDA-MB-435 was > 100 µM (inactive) each time. The GI50 was > 100 µM (inactive) in the test on Malme-3M; 81.7 µM (inactive) in the test with NCI-H522; > 100 µM (inactive) with HCT-116; > 100 µM (inactive) in the test with CAKI-1; > 100 µM (inactive) with SNB-19; > 100 µM (inactive) with OVCAR-3. Besides, the GI50 in the test with NCI-H23, in the test on HOP-92, with HT-29, in the test with SK-MEL-28, in the test on T47D and in the test on 786-0 was > 100 µM (inactive) in each case. Further, the GI50 with COLO 205 is > 100 µM (inactive).
On to `O=C(COc1ccc(OCC(=O)N2C(=O)CC/C2=N\c2ccc(Cl)cc2)cc1)N1C(=O)CS/C1=N\c1ccc(Cl)cc1`, for which the GI50 was 46.1 µM (inactive) in the test on RPMI-8226; 57.4 µM (inactive) in the test on BT-549; > 100 µM (inactive) with TK-10; > 100 µM (inactive) in the test on Hs-578T; > 100 µM (inactive) in the test with DU-145; > 100 µM (inactive) in the test with MDA-MB-435. In addition, the GI50 with Malme-3M was 77.3 µM (inactive); in the test on NCI-H522, 63.4 µM (inactive); with HCT-116, 93.8 µM (inactive); in the test on CAKI-1, > 100 µM (inactive); in the test on SNB-19, 63.2 µM (inactive); in the test with OVCAR-3, 61.2 µM (inactive). Also, the GI50 with NCI-H23 was 42 µM (inactive); in the test on HOP-92, > 100 µM (inactive); with HT-29, 48.4 µM (inactive); in the test with SK-MEL-28, > 100 µM (inactive); in the test on T47D, 14.2 µM (inactive); with 786-0 it was > 100 µM (inactive). Also, the GI50 in the test on COLO 205 was 47.9 µM (inactive).
Turning to `CC1=NNC(=O)C1C1CC(c2c[nH]c3ccccc23)=NN(c2ccccc2)C1=O` (configuration not stated), the GI50 in the test on RPMI-8226 is 60.3 µM (inactive); in the test on BT-549 it was 86.1 µM (inactive); with TK-10 it was > 100 µM (inactive); in the test on Hs-578T it was 29.8 µM (inactive); with DU-145 it was > 100 µM (inactive); with MDA-MB-435, 55.1 µM (inactive). The GI50 in the test with Malme-3M was > 100 µM (inactive); with NCI-H522, 19.8 µM (inactive); in the test on HCT-116, 34.7 µM (inactive); in the test with CAKI-1, > 100 µM (inactive); in the test with SNB-19, > 100 µM (inactive); with OVCAR-3 it was > 100 µM (inactive). The GI50 was > 100 µM (inactive) in the test with NCI-H23; > 100 µM (inactive) in the test with HOP-92; > 100 µM (inactive) in the test with HT-29; > 100 µM (inactive) in the test on SK-MEL-28; > 100 µM (inactive) in the test with T47D; 24.6 µM (inactive) in the test on 786-0. For the same molecule, in the test with COLO 205, the GI50 was > 100 µM (inactive).

(Values after ChEMBL document CHEMBL1201862, “PubChem BioAssay data set” (2004).)
